Three compounds from patent publication US7790904B2, “Substituted benzimidazole derivatives” (Hoffmann-La Roche Inc., priority 2007, dated 2010) can be followed below.

The EC50 is the concentration at which the effect is half-maximal. As usually defined, the IC50 is the midpoint of a concentration-inhibition curve. A low value points to greater potency in that assay.

The target in assay [1] is T1, ligand binding domain (LBD) of human FXR (aa 193-473) (Homo sapiens, UniProt Q96RI1).
T1 sequence (Q96RI1 1-486): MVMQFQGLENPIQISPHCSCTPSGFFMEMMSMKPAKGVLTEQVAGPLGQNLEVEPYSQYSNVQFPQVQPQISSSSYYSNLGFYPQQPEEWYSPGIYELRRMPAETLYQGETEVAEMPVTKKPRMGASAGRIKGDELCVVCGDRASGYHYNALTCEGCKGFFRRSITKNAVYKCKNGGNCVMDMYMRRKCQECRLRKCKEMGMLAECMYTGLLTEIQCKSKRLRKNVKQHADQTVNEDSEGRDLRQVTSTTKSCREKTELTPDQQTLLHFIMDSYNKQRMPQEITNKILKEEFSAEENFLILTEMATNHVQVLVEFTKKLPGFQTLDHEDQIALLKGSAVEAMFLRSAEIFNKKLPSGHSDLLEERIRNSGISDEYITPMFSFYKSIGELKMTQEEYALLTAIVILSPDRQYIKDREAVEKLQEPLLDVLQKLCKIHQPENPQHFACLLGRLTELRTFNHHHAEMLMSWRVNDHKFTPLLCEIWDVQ
The assay can be described thus: Luciferase transcriptional reporter gene assay (transactivation). The assay is classed as cell-based. To be noted: BHK21 cells transfected with pFA-FXR-LBD plus reporter plasmid; 24 hours incubation; luciferase luminescence. An excerpt: (§1) Bacterial and mammalian expression vectors were constructed to produce glutathione-s-transferase (GST) and Gal4 DNA binding domain (GAL) proteins fused to the ligand binding domain (LBD) of human FXR (aa 193-473). To accomplish this, the portions of the sequences encoding the FXR LBD were amplified by polymerase chain reaction (PCR) from a full-length clone by PCR and then subcloned into the plasmid vectors. The final clone was verified by DNA sequence analysis.
Luciferase Transcriptional Reporter Gene Assays
Baby hamster kidney cells (BHK21 ATCC CCL 10) were grown in DMEM medium containing 10% FBS at 37° C. in a 95% […]/5% CO2 atmosphere. Cells were seeded in 6-well plates at a density of 10^5 cells/well and then transfected with the pFA-FXR-LBD or expression plasmid plus a reporter plasmid. […] Six hours following transfection, the cells were harvested by trypsinization and seeded in 96-well plates at a density of […]. After 24 hours to allow attachment of cells, the medium was removed and replaced with 100 μl of phenol red-free medium containing the test substances or control ligands (final DMSO concentration: 0.4%). Following incubation of the cells for 24 hours with substances, 50 μl of the supernatant was discarded and then 50 μl of Luciferase Constant-Light Reagent (Roche Molecular Biochemicals) was added to lyse the cells and initiate the luciferase reaction. Luminescence, as a measure of luciferase activity, was detected in a Packard TopCount. Transcriptional activation in the presence of a test substance was expressed as fold-change in luminescence compared to that of cells incubated in the absence of the substance. EC50 values were calculated using the XLfit program (ID Business Solutions Ltd. UK).
On the technique in general: In a reporter assay the amount or activity of a reporter protein is the signal.

The target in assay [2] is T2, FXR ligand binding domain (GST-FXR LBD fusion protein) (Homo sapiens, UniProt Q96RI1).
T2 construct: made in house; host or cells: E. coli BL21 (pLysS)
T2 sequence (Q96RI1 193-472 isoform Q96RI1-2 limits assumed): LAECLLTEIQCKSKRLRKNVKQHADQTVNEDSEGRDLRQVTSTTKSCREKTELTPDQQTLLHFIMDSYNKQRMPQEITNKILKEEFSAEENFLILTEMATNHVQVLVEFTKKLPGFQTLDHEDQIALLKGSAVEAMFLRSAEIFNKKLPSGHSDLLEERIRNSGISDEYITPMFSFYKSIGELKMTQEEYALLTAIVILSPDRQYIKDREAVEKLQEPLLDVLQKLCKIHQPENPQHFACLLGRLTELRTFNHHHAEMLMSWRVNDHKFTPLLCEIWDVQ
The assay can be described thus: Radioligand binding assay (SPA, radioligand displacement). As to conditions: 40 nM GST-FXR LBD on glutathione yttrium silicate SPA beads; radioligand e.g. 20 nM 2,N-dicyclohexyl-2-[2-(2,4 dimethoxy-phenyl)-benzoimidazol-1-yl]-acetamide. How it is done:
The following tests were carried out in order to determine the activity of the compounds of formula (I). Background information on the binding assay can be found in: Nichols J S et al. “Development of a scintillation proximity assay for peroxisome proliferator-activated receptor gamma ligand binding domain”, (1998) Anal. Biochem. 257: 112-119.
as §1
The induction, expression, and subsequent purification of GST-LBD fusion protein was performed in E. coli strain BL21 (pLysS) cells by standard methods (Current Protocols in Molecular Biology, Wiley Press, ed. Ausubel et al.).
Radioligand Binding Assay
Binding of test substances to the FXR ligand binding domain was assessed in a radioligand displacement assay. The assay was performed in a buffer consisting of 50 mM Hepes, pH 7.4, 10 mM NaCl, 5 mM MgCl2, 0.01% CHAPS. For each reaction well in a 96-well plate, 40 nM of GST-FXR LBD fusion protein was bound to 10 μg glutathione ytrium silicate SPA beads (PharmaciaAmersham) in a final volume of 50 μl by shaking. A radioligand (e.g. 20 nM of 2,N-dicyclohexyl-2-[2-(2,4 dimethoxy-phenyl)-benzoimidazol-1-yl]-acetamide) and test compounds were added, and scintillation proximity counting was performed. All binding assays were performed in 96-well plates and the amount of bound ligand was measured on a Packard TopCount using OptiPlates (Packard). Dose response curves were performed within a range of test compound concentrations from 6×10^−9 M to 2.5×10^−5 M and IC50s were calculated.

Structures are written as SMILES.

As to `Cc1cc(Cl)ccc1O[C@H](C)c1nc2ccc(F)cc2n1[C@H](C(=O)NC1CCCCC1)C1CCCCC1` [Example 31, (S)-2-{2-[(R)-1-(4-Chloro-2-methyl-phenoxy)-ethyl]-6-fluoro-benzoimidazol-1-yl}-2,N-dicyclohexyl-acetamide], in assay [1], the EC50 was 254 nM. The compound also gave an IC50 in assay [2] of 118 nM.

Turning to `O=C(NC1CCCCC1)C(C1CCCCC1)n1c(COc2ccccn2)nc2cc(F)ccc21` (stereo not drawn) [Example 56, 2,N-Dicyclohexyl-2-[5-fluoro-2-(pyridin-2-yloxymethyl)-benzoimidazol-1-yl]-acetamide], the 50% effective concentration (EC50) in assay [1] was determined as 982 nM. Also, the IC50 in assay [2] is 105 nM.

In the case of `Cc1cccc(OCc2nc3cc(F)ccc3n2C(C(=O)NC2CCCCC2)C2CCCCC2)c1C` (stereo not drawn) [Example 49, 2,N-Dicyclohexyl-2-[2-(2,3-dimethyl-phenoxymethyl)-5-fluoro-benzoimidazol-1-yl]-acetamide], the EC50 in assay [1] was 95 nM. Further, the IC50 in assay [2] is 38 nM.
